BindingDB's records for patent US20240190875 (Changchun Genescience Pharmaceutical Co., 2024)

What follows are compounds tested against Growth hormone secretagogue receptor type 1 (Homo sapiens, UniProt Q92847) (assay: Determination of Human GHSR Agonist Activity).
From the text: This method was used to determine the agonism effect of the compound of the invention on the activity of human GHSR protein expressed in human GHSR/CHO stable cell line.

Sequence of Growth hormone secretagogue receptor type 1 (Q92847 whole entry): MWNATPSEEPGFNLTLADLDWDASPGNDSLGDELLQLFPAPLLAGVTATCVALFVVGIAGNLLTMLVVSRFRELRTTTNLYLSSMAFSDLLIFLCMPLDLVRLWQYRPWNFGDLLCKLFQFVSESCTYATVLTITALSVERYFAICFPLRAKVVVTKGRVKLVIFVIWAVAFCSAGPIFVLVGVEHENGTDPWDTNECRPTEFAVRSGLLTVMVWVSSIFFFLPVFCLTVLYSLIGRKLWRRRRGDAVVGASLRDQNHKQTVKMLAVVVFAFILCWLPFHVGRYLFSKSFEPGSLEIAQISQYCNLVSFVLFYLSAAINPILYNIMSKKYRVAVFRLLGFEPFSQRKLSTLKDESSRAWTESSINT

In order of falling EC50:
1. Cc1oc(=O)oc1COC(=O)NC(C)(C)C(=O)N[C@H](COCc1ccccc1)C(=O)N1CCC2(CC1)CN(S(C)(=O)=O)c1ccccc12 [US20240190875, Example 17]  24.5 nM
2. CC(=O)/C=C(/C)NC(C)(C)C(=O)N[C@H](COCc1ccccc1)C(=O)N1CCC2(CC1)CN(S(C)(=O)=O)c1ccccc12 [US20240190875, Example 19]  24.3 nM
3. CC(C)(C)C(=O)OCOC(=O)NC(C)(C)C(=O)N[C@H](COCc1ccccc1)C(=O)N1CCC2(CC1)CN(S(C)(=O)=O)c1ccccc12 [US20240190875, Example 21]  18.3 nM
4. CC(C)(NC(=O)[C@@H](N)CCC(N)=O)C(=O)N[C@H](COCc1ccccc1)C(=O)N1CCC2(CC1)CN(S(C)(=O)=O)c1ccccc12 [US20240190875, Example 1]  15.6 nM
5. C[n+]1cccc(C(=O)NC(C)(C)C(=O)N[C@H](COCc2ccccc2)C(=O)N2CCC3(CC2)CN(S(C)(=O)=O)c2ccccc23)c1 [US20240190875, Example 18]  15.1 nM
6. CC(C)(NC(=O)CN)C(=O)N[C@H](COCc1ccccc1)C(=O)N1CCC2(CC1)CN(S(C)(=O)=O)c1ccccc12 [US20240190875, Example 16]  9.8 nM
7. CC(=O)OCOC(=O)NC(C)(C)C(=O)N[C@H](COCc1ccccc1)C(=O)N1CCC2(CC1)CN(S(C)(=O)=O)c1ccccc12 [US20240190875, Example 22]  9.3 nM
8. CC(C)C(=O)OCOC(=O)NC(C)(C)C(=O)N[C@H](COCc1ccccc1)C(=O)N1CCC2(CC1)CN(S(C)(=O)=O)c1ccccc12 [US20240190875, Example 15]  4.3 nM
